Laboratory results from patent US20250144187A1, “COMBINATION OF HYDROLASES AND ANTI-MICROORGANISM DRUGS AND USES THEREOF” (CENTRE FOR EYE AND VISION RESEARCH LIMITED, priority 2023, published 2025).

Assays:
MRSA [1] = test: Antibiotics accumulation analysis (LC-MS/MS); type: cell-based, Staphylococcus aureus
Procedure: 11) Antibiotics accumulation analysis. The accumulation of antibiotics in MRSA was determined by LC-MS/MS analysis according to a previous report [Liu, Y et al., Adv. Sci. 7. 1902227 (2020); Ong, V et al., Drug Metab. Dispos, 4127 (2014); Richter, M. F et al., Nature 545, 299-304 (2017)]. Briefly, 1.0 ml of overnight culture of MRSA was diluted into […] of fresh LB medium and cultured at 37° C. with shaking at 250 rpm until when bacteria OD600 was about 0.4. Then, tedizolid phosphate (0.5 μg/ml) in combination with varying lysozyme (0, 0.25, 0.5 and 1.0 mg/ml) was added. After that, all samples were further cultured at 37° C. with shaking at 250 rpm for 0.5, 1.0, 2.0 or 4 hours, respectively. Then, all bacteria were pelleted by centrifuging at 13 000 g for 20 minutes. To lyse the bacteria, each pellet was dissolved in 400 μl of lysis buffer (150 mM NaCl, 1% Triton-X100, 1× proteinase inhibitor and 50 mM HEPES-Na, pH 8.0) and then subjected to sonication lysis, followed by three freeze-thaw cycles in liquid nitrogen. The lysates were pelleted at 13 000 g for 20 minutes and the supernatants were collected. All debris were re-suspended in 400 μl of methanol and pelleted as before, followed by 400 μl of acetonitrile treatment as before. These supernatants were combined with the previously collected supernatants, Residual debris was removed by centrifuging at 13 000 g for 20 minutes. Supernatants were analyzed by an Agilent 1260 Infinity HPLC system coupled to AD SCIEX QTRAP 6500 mass spectrometers (ABSciex, CA, USA). The liquid chromatography separation was performed on water HSS T3 column (2.1×100 mm, 3 μm) with mobile phase A (20 mM ammonium formate in water) and mobile phase B (methanol). The flow rate was […]. […] The quantification determination of antibiotic uptake was performed by multiple reaction monitoring (MRM) with negative electrospray ionization using the m/z 451 transition for tedizolid phosphate [Ong, V et al., Drug Metab. […]

MRSE = test: Time-killing curves, tedizolid phosphate/lysozyme; type: cell-based, Staphylococcus epidermis; conditions: tedizolid phosphate + 0.5 mg/ml lysozyme, after 22 hours; dropping from the level of 10^12
MRSA [2] = test: High-throughput screening of 1953 FDA-approved compounds with human lysozyme; type: cell-based, Staphylococcus aureus; conditions: compound 25 μM + 1 mg/ml lysozyme, 24-hour
Procedure: 1) High-throughput screening. According to standard screening method [Zhong. […] Commun. 11, 523 (2020)], 1953 FDA-approved compounds from our drugs library at a fixed concentrations of 25 μM were screened against methicillin-resistant Staphylococcus aureus (MRSA) and Staphylococcus epidermis (a coagulase negative Staphylococci, MRSE), in combination with human lysozyme. Specifically, these compounds were added into bacterial suspensions (1×10^5 CFU/ml, in LB medium) in the absence or presence of 1 mg/ml lysozyme. LB medium without bacteria served as background group. Then, the real-time growth curvet of MRSA were monitored per hour and for 24 hours. Absorbance at 600 am (OD600) of bacterial culture at the time point of 24-hour was also measured. The inhibition ratio (%) was calculated as (ODcontrol−ODsample)/(ODcontrol−ODbackground)×100%. […] Herein, the relative and apparent inhibition ratios indicated the combination effect and potential toxicity of compound, respectively. Synergy effect was defined as the relative inhibition ratio of ≥90%. All assays were performed in triplicate.

ARPE-19 cells = type: cell-based; conditions: human, 24 h
Procedure: 14) Toxicities analysis on lysozyme and cefdinir. Toxicities analysis of lysozyme and cefdinir were performed on ARPE-19 and 293T cells [Guo H et al., ACS Chem Biol 17, 2003-2009 (2022)]. Drugs at different concentrations were added into the plates, in which cells had 80% confluency. Those without any drug's treatment served as control group. Ater 24 hours culture at 37° C., survival cells were counted by using CCK-8 kit, 100% survival ratio (no toxicity) was defined as those had same number of survival cells in control group.

MRSA [3] = test: High-throughput screening of 4989 compounds with human lysozyme; type: cell-based, Staphylococcus aureus; conditions: for MRSA Inhibition ratio (%): compound 2.5 μM + 1 mg/ml lysozyme relative to compound only
Procedure: 1) High-throughput screening. […] Specifically, these compounds were added into bacterial suspensions (1×10^6 CFU/ml) in the […] microliter plate, in which each well contained 50 μl of lysogeny broth (LB) medium with or without 1 mg/ml lysozyme. LB medium in the absence of bacteria served as background group. Then, the real-time growth curves of MRSA were monitored per hour and for 24 hours. Experiments were performed with the biological replicates. Fly analyzing the absorbance 600 nm (OD600) of bacterial culture at the time point of 24-hour, the inhibition ratio (%) was calculated according to (ODcontrol−ODsample)/(ODcontrol−ODbackground)×100%. Here, the relative and apparent inhibition ratios were figured out by using the absorbance of bacterial suspension only containing compound and that without any drug treatment as ODcontrol, respectively. The relative and apparent inhibition ratios indicated the combination effect and potential toxicity of compound in combination effect. Synergy effect was defined as the relative inhibition ratio of ≥90%.

Cn1nnc(-c2ccc(-c3ccc(N4C[C@H](COP(=O)(O)O)OC4=O)cc3F)cn2)n1 [tedizolid phosphate, Tedizolid Phosphate]
increase in the level of intracellular tedizolid phosphate (MRSA [1]; after 4 hours, lysozyme (≤0.25 mg/ml) used in combination): 10 fold | intracellular accumulation of tedizolid phosphate (MRSA [1]; combination therapy, 1 hour): ca. 100 μg/l | tedizolid phosphate alone needed to achieve the same intracellular accumulation (MRSA [1]; tedizolid phosphate alone, 1 hour): ≥ 4.5 µg/mL | bacterial load per ml culture (MRSE): 10^6 colony forming units (CFUs)

C=CC1=C(C(=O)O)N2C(=O)[C@@H](NC(=O)/C(=N\O)c3csc(N)n3)[C@H]2SC1 [cefdinir, Cefdinir]
Growth inhibition ratio (mean ± SD, %) MRSA (MRSA [2]): 85.21 ± 9.84% | safe concentration without any effect on cell survival ratios (ARPE-19 cells): < 64 µg/mL | MRSA Combination (MRSA [3]; OD600 at 24-hour, compound 2.5 μM + 1 mg/ml lysozyme): 0.0564 | MRSA Drug only (MRSA [3]; OD600 at 24-hour, compound 2.5 μM without lysozyme): 0.6975 | MRSA Inhibition ratio (%) (MRSA [3]): above 90% | MRSA Inhibition ratio (%) (MRSA [3]; listed as Ce ? dinir): 99.16%
